Key:
Beta-secretase 1 [1] = target: T1, Beta-secretase 1 (Homo sapiens, UniProt P56817); assay: Inhibition of BACE1 (unknown origin)
Beta-secretase 1 [2] = target: T1, Beta-secretase 1; assay: Inhibition of BACE1 (unknown origin) by FRET assay
[3] = Permeability from apical to basolateral side in MDCK cells at 50 uM; type: ADME, cell-based, Canis lupus familiaris; conditions: dog
Beta-secretase 1 [4] = target: T1, Beta-secretase 1; assay: Inhibition of BACE1 in […] PC12 cells expressing APP Sweden mutant; type: cell-based, PC-12
Beta-secretase 2 = target: T2, Beta-secretase 2 (Homo sapiens, UniProt Q9Y5Z0); assay: Inhibition of BACE2 (unknown origin)
T2 sequence (Q9Y5Z0 whole entry): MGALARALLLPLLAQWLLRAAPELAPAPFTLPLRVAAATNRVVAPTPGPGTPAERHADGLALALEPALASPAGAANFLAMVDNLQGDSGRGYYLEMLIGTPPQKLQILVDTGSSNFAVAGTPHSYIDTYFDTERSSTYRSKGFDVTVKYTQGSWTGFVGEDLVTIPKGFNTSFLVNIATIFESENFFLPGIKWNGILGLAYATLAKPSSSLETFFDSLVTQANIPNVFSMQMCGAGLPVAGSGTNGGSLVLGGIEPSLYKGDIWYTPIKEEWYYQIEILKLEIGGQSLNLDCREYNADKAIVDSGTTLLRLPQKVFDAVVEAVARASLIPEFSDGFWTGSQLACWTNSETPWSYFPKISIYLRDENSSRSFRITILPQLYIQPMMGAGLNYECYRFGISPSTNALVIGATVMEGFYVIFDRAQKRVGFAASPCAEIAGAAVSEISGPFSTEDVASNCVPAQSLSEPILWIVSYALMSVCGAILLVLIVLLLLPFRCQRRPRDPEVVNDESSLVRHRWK

Cathepsin D [5] = target: T3, Cathepsin D (Homo sapiens, UniProt P07339); assay: Inhibition of cathepsin D (unknown origin)
Cathepsin D [6] = target: T3, Cathepsin D; assay: Inhibition of cathepsin D (unknown origin) at 10 uM
Beta-secretase 1 [7] = target: T1, Beta-secretase 1; assay: Inhibition of BACE1 in […] PC12 cells expressing APP Sweden mutant at 10 uM; type: cell-based; conditions: PC-12

T3 sequence (P07339 65-162 limits assumed): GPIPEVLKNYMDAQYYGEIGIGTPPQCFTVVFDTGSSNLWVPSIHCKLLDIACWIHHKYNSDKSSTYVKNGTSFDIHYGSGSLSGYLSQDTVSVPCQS
T3 sequence (P07339 169-412 limits assumed): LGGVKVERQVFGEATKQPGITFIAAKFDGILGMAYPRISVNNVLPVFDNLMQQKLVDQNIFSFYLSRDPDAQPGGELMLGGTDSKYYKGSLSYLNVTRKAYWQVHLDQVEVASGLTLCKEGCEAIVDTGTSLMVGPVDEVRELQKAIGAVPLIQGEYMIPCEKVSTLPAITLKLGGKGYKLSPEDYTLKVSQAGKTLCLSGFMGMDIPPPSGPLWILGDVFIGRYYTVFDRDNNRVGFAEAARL
T1 sequence (P56817 whole entry): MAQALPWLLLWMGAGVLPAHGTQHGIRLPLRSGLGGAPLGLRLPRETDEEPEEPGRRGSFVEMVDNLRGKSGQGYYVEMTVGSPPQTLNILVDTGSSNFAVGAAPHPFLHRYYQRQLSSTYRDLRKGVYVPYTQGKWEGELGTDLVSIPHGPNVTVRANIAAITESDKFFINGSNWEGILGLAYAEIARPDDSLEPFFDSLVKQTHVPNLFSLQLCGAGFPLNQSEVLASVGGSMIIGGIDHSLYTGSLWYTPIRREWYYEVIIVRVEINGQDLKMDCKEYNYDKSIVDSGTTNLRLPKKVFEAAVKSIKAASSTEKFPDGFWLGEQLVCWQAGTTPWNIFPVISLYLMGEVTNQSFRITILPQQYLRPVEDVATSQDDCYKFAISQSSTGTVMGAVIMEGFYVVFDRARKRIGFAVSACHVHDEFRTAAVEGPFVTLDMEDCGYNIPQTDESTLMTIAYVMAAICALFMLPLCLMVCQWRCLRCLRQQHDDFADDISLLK

COc1ccc(N2CCN([C@@H]3CN(C(=O)Nc4cc(Cl)cc(Cl)c4)CC[C@H]3OC(=O)c3ccc(Oc4ccccc4)cc3)CC2)cc1
IC50 (Beta-secretase 1 [1]): 600 nM

CC(C)c1ccc(C(=O)O[C@H]2CN(S(=O)(=O)c3ccccc3)C[C@@H]2Nc2nc3cc(F)ccc3[nH]2)cc1
IC50 (Beta-secretase 1 [2]): 720 nM

CCCS(=O)(=O)N1C[C@H](Nc2nc3cc(F)ccc3[nH]2)[C@@H](OC(=O)c2ccc(C(C)C)cc2)C1
IC50 (Beta-secretase 1 [2]): 670 nM

CC(C)(C)OC(=O)N1C[C@H](Nc2nc3cc(F)ccc3[nH]2)[C@@H](OCc2ccc(-c3ccccc3)cc2)C1
Papp A→B at 50 µM [3]: 13 ×10⁻⁶ cm/s
IC50 (Beta-secretase 1 [4]): 1700 nM
IC50 (Beta-secretase 2): 8900 nM
IC50 (Cathepsin D [5]): > 10000 nM
inhibition (Cathepsin D [6]): 5.7%
IC50 (Beta-secretase 1 [2]): 120 nM

CC(C)c1ccc(CO[C@H]2CN(S(=O)(=O)c3ccccc3)C[C@@H]2Nc2nc3cc(F)ccc3[nH]2)cc1
IC50 (Beta-secretase 1 [2]): 480 nM

CCCS(=O)(=O)N1C[C@H](Nc2nc3cc(F)ccc3[nH]2)[C@@H](OCc2ccc(C(C)C)cc2)C1
IC50 (Beta-secretase 1 [2]): 640 nM

CC(C)(C)OC(=O)N1C[C@H](Nc2nc3cc(Cl)ccc3[nH]2)[C@@H](OC(=O)c2ccc(-c3ccccc3)cc2)C1
IC50 (Beta-secretase 1 [2]): 440 nM

CN(C)c1ccc(C(=O)O[C@H]2CN(C(=O)OC(C)(C)C)C[C@@H]2Nc2nc3cc(F)ccc3[nH]2)cc1
IC50 (Beta-secretase 1 [2]): 1350 nM

Cc1ccc2[nH]c(N[C@H]3CN(C(=O)c4ccccc4)C[C@@H]3OC(=O)c3ccc(-c4ccccc4)cc3)nc2c1
Papp A→B at 50 µM [3]: 5.2 ×10⁻⁶ cm/s
IC50 (Beta-secretase 2): 5700 nM
IC50 (Cathepsin D [5]): > 10000 nM
inhibition (Beta-secretase 1 [7]): 52%
inhibition (Cathepsin D [6]): 4.2%
IC50 (Beta-secretase 1 [2]): 390 nM

CC(C)c1ccc(CO[C@H]2CN(C(=O)OC(C)(C)C)C[C@@H]2Nc2nc3cc(F)ccc3[nH]2)cc1
IC50 (Beta-secretase 1 [2]): 730 nM

CC(C)c1ccc(CO[C@H]2CN(CCO)C[C@@H]2Nc2nc3cc(F)ccc3[nH]2)cc1
IC50 (Beta-secretase 1 [2]): > 5000 nM

COc1ccc2[nH]c(N[C@H]3CN(C(=O)OC(C)(C)C)C[C@@H]3OC(=O)c3ccc(-c4ccccc4)cc3)nc2c1
IC50 (Beta-secretase 1 [2]): 450 nM

CC(C)(C)OC(=O)N1C[C@H](Nc2nc3cc(F)ccc3[nH]2)[C@@H](OC(=O)c2ccc(-c3ccccc3)cc2)C1
Papp A→B at 50 µM [3]: 1.5 ×10⁻⁶ cm/s
IC50 (Beta-secretase 2): 10100 nM
IC50 (Cathepsin D [5]): > 10000 nM
inhibition (Beta-secretase 1 [7]): 40%
inhibition (Cathepsin D [6]): 1.1%
IC50 (Beta-secretase 1 [2]): 50 nM

Cc1ccc2[nH]c(N[C@H]3CN(C(=O)OC(C)(C)C)C[C@@H]3OC(=O)c3cccc(-c4ccc(F)cc4)c3)nc2c1
IC50 (Beta-secretase 1 [2]): 190 nM

CC(=O)N1C[C@H](Nc2nc3cc(C)ccc3[nH]2)[C@@H](OC(=O)c2ccc(-c3ccccc3)cc2)C1
IC50 (Beta-secretase 1 [2]): 720 nM

Cc1ccc2[nH]c(N[C@H]3CN(C(=O)OC(C)(C)C)C[C@@H]3OC(=O)c3ccc(-c4ccccc4)cc3)nc2c1
IC50 (Beta-secretase 1 [2]): 210 nM

CC(C)c1ccc(CO[C@H]2CN(CC(N)=O)C[C@@H]2Nc2nc3cc(F)ccc3[nH]2)cc1
IC50 (Beta-secretase 1 [2]): > 5000 nM

Cc1ccc2[nH]c(N[C@H]3CNC[C@@H]3OC(=O)c3ccc(-c4ccccc4)cc3)nc2c1
Papp A→B at 50 µM [3]: 4.8 ×10⁻⁶ cm/s
IC50 (Beta-secretase 1 [4]): 3200 nM
IC50 (Beta-secretase 2): 4300 nM
IC50 (Cathepsin D [5]): > 10000 nM
inhibition (Cathepsin D [6]): 4.5%
IC50 (Beta-secretase 1 [2]): 660 nM

CC(C)(C)OC(=O)N1C[C@H](Nc2nc3cc(Cl)ccc3[nH]2)[C@@H](OC(=O)c2cccc(Oc3ccccc3)c2)C1
IC50 (Beta-secretase 1 [2]): 360 nM

COC(=O)CN1C[C@H](Nc2nc3cc(C)ccc3[nH]2)[C@@H](OC(=O)c2ccc(-c3ccccc3)cc2)C1
IC50 (Beta-secretase 1 [2]): 570 nM

CCCS(=O)(=O)N1C[C@H](Nc2nc3cc(F)ccc3[nH]2)[C@@H](OC(=O)c2ccc(N(C)C)cc2)C1
IC50 (Beta-secretase 1 [2]): 3150 nM

CC(C)c1ccc(C(=O)O[C@H]2CN(C(=O)OC(C)(C)C)C[C@@H]2Nc2nc3cc(F)ccc3[nH]2)cc1
Papp A→B at 50 µM [3]: 2.3 ×10⁻⁶ cm/s
IC50 (Beta-secretase 2): 4400 nM
IC50 (Cathepsin D [5]): > 10000 nM
inhibition (Beta-secretase 1 [7]): 34%
inhibition (Cathepsin D [6]): 1.4%
IC50 (Beta-secretase 1 [2]): 70 nM

CC(C)c1ccc(CO[C@H]2CNC[C@@H]2Nc2nc3cc(F)ccc3[nH]2)cc1
IC50 (Beta-secretase 1 [2]): > 5000 nM

Reference: ChEMBL document CHEMBL3745702, “Synthesis of (3S,4S)-4-aminopyrrolidine-3-ol derivatives and biological evaluation for their BACE1 inhibitory activities” (Bioorg Med Chem Lett, 2016)
